Laboratory results from PMC5259778, “Candidate pheromone receptors of codling moth Cydia pomonella respond to pheromones and kairomones” (Scientific Reports, 2017).

Assays:
CpomOrco + OR3 = target: T1, CpomOrco + OR3 (Cydia pomonella, UniProt H9A5M3); test: Calcium imaging of HEK293T cells expressing CpomOrco + OR3; assay type: cell-based; conditions: for amplitude of the calcium response (mean of the maximum response ± SEM): 500 μM, n = 151; for EC50: calcium response normalized to 250 μM VUAA3
T1 sequence (H9A5M3 1-426): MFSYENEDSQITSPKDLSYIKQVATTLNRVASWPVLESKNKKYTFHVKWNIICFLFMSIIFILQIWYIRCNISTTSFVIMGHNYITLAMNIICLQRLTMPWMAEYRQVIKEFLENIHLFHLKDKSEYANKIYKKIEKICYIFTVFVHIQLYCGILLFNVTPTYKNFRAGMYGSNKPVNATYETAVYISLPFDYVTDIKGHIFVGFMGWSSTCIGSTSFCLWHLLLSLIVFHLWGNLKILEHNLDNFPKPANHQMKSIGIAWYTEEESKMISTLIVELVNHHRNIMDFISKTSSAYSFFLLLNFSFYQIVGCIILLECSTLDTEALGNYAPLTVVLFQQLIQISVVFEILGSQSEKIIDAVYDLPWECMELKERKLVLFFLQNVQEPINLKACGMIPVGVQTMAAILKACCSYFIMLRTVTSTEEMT
T1 sequence (H9A5M2 1-473 partner): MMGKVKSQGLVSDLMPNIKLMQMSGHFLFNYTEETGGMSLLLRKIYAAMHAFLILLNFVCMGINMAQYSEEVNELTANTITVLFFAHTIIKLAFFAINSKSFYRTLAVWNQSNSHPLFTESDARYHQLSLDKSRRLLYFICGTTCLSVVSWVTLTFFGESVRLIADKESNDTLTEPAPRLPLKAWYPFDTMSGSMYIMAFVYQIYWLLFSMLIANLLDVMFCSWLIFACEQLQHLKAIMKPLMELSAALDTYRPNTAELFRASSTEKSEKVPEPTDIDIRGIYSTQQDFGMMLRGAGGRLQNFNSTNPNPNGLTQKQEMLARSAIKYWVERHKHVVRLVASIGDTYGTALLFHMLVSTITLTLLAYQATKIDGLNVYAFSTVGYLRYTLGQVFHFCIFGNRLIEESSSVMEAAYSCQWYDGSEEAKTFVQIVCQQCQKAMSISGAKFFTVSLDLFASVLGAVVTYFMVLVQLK
Method: HEK293T cells were grown in HEK cell media [Dulbecco’s modified Eagle’s medium containing 10% fetal bovine serum (MP Biomedicals, Solon, OH, USA), 2.0 mM L-glutamine, and 100 μg/mL Penicillin/Streptomycin (Invitrogen)] at 37 °C and 5% CO2. To test transient expression of CpomORs for calcium imaging or patch-clamp recording experiments, 35-mm petri dishes containing semi-confluent HEK293T cells were transiently transfected. To transfect cells with CpomOrco, we used 1.0 μg of pcDNA5/TO/CpomOrco DNA. In order to promote expression of the OR[51], we used double aliquots for pcDNA5/TO/CpomOR DNAs (2.0 μg), combined with 1.0 μg of pcDNA5/TO/CpomOrco for co-transfections (CpomOrco + ORs). […] In order to report candidate OR-expressing cells, expression of both fluorescent reporter genes was under the regulation of the same promoter for CpomOR genes (CMV). Transfection DNAs were dissolved in 100 μL sterile DMEM, mixed with 3.0 μL Calfectin (SignaGen, Rockville, MD, USA) following the recommended protocol.
Transfections were conducted overnight. HEK cell media was replaced with 1.0 mL fresh media to incubate cells at 37 °C for up to 6 h, at which point part of the cell culture was spread in the middle of a 35-mm plate as individual cells or small clusters. After 12 h of incubation at 37 °C and 5% CO2, cells were rinsed at the sides with 2.0 mL fresh HEK media. Cells were allowed to recover for at least 1 h prior to calcium imaging.
After incubation, the buffer was removed and cells were rinsed with 4.0 mL fresh HEK Ca^++ Ringer (mM: 140 NaCl, 2.0 CaCl2, 10 HEPES, pH 7.5), and placed on the stage of an inverted microscope (Olympus IX-71, Olympus Corp., Tokyo, Japan) equipped with a cooled CCD camera (ORCA R2, Hamamatsu, Hamamatsu City, Japan). Cells were continuously superfused with Ca^++ Ringer using two gravity fed perfusion contours. The stimulating contour washing the cells (~250 μL/min) was switched rapidly to the stimulus contour using a multi-channel rapid solution changer (RSC-160, Bio-Logic, Claix, France) under the software control of Clampex 9 (Molecular Devices, Sunnyvale, CA, USA).
Fluorescence imaging was performed using Imaging Workbench 6 software (INDEC BioSystems, Santa Clara, CA, USA). Each cell was assigned a region of interest (ROI) and changes in fluorescence intensity within each ROI were measured and expressed as the fractional change in fluorescence intensity (dF) or in some cases as dF/F0 where F0 is the basal fluorescence level before agonist application. […] Continuous traces of multiple responses were compensated for slow drift of the baseline fluorescence when necessary. All recordings were performed at room temperature (22–25 °C).
Compounds were diluted in either DMSO or ethanol (Sigma Aldrich) depending on their solubility properties. […]

CpomOR3 = test: Single sensillum recordings, CpomOR3 expressed in Drosophila ab3A OSNs; assay type: cell-based, Cydia pomonella; conditions: dose loaded in the stimulus cartridge
Source text: To perform heterologous expression in D. melanogaster OSNs, CpomORs were amplified using primers in Table 2 and purified PCR products were cloned into the PCR8/GW/TOPO plasmid (Invitrogen) following the recommended protocol. Cassettes with inserts were then transferred from their PCR8/GW/TOPO plasmids to the destination vector (pUASg-HA.attB, constructed by E. Furger and J. Bischof, kindly provided by the Basler group, Zürich), using the Gateway LR Clonase II kit (Invitrogen). The integrity and orientation of inserts was confirmed by sequencing (Sanger sequencer, 3730xl). […]
CpomOR1 and CpomOR6a expressed in at1 OSNs, and CpomOR3 expressed in ab3A OSNs, were tested through single sensillum recordings (SSR). […] The reference electrode was manually inserted in the right eye of the fly, while the recording electrode was manoeuvred with a DC-3K micromanipulator equipped with a PM-10 piezo translator (Märzhäuser Wetzler GmbH, Wetzler, Germany) and inserted at the base of the determined sensilla. Signals coming from the olfactory sensory neurons were amplified 10 times with a probe (INR-02, Syntech, Hilversum, the Netherlands), digitally converted through an IDAC-4-USB (Syntech) interface, and visualized and analysed with the software Autospike v. […]

CpomOR6a = test: Single sensillum recordings, CpomOR6a expressed in Drosophila at1 OSNs; assay type: cell-based, Cydia pomonella; conditions: 10 μg per stimulus
Source text: (§1) To perform heterologous expression in D. melanogaster OSNs, CpomORs were amplified using primers in Table 2 and purified PCR products were cloned into the PCR8/GW/TOPO plasmid (Invitrogen) following the recommended protocol. Cassettes with inserts were then transferred from their PCR8/GW/TOPO plasmids to the destination vector (pUASg-HA.attB, constructed by E. Furger and J. Bischof, kindly provided by the Basler group, Zürich), using the Gateway LR Clonase II kit (Invitrogen). The integrity and orientation of inserts was confirmed by sequencing (Sanger sequencer, 3730xl). Transformant UAS-CpomOR3 and UAS-CpomOR1 lines were generated by Best Gene (Chino Hills, CA, USA), using the PhiC31 integrase system, while the transformant UAS-CpomOR6a line was generated in our labs. Briefly, recombinant pUASg-HA.attB-CpomOR plasmids were injected into embryos of a D. melanogaster line containing an attP insertion site within the third chromosome (genotype y1 M{vas-int.Dm}ZH-2A w*; M{3xP3-RFP.attP}ZH-86Fb), leading to non-random integration. To drive expression of CpomORs in at1 OSNs in place of the endogenous receptor Or67d, transformant UAS-CpomOR lines were crossed to the knock-in Or67d^GAL4 line (kindly provided by Barry Dickson) to generate double homozygous lines w^+;UAS-CpomOR; Or67d^GAL4. Additionally, to drive expression of CpomOR3 in ab3A OSNs, the UAS-CpomOR3 line was crossed to the Δhalo;Or22a-Gal4 mutant line[20][57]. To verify insertion of UAS-CpomORs constructs into the genome, gDNA was extracted and used as template in PCR with primers for the full ORF of CpomORs (Table 2).
(§2) CpomOR1 and CpomOR6a expressed in at1 OSNs, and CpomOR3 expressed in ab3A OSNs, were tested through single sensillum recordings (SSR). Three to 8-day-old flies were immobilized in 100 μL pipette tips with only the top half of the head protruding. The left antenna of each insect was gently pushed with a glass capillary against a double-sided adhesive tape placed on a piece of glass. This piece of glass and the pipette tip were fixed with dental wax on a microscope slide. Electrolytically sharpened tungsten electrodes (Harvard Apparatus Ltd, Edenbridge, United Kingdom) were used to penetrate the insect´s body. The reference electrode was manually inserted in the right eye of the fly, while the recording electrode was manoeuvred with a DC-3K micromanipulator equipped with a PM-10 piezo translator (Märzhäuser Wetzler GmbH, Wetzler, Germany) and inserted at the base of the determined sensilla. Signals coming from the olfactory sensory neurons were amplified 10 times with a probe (INR-02, Syntech, Hilversum, the Netherlands), digitally converted through an IDAC-4-USB (Syntech) interface, and visualized and analysed with the software Autospike v. 3.4 (Syntech). A constant flow of 0.65 m/s of humidified air (charcoal-filtered) was delivered through a glass tube to the antenna. The panel of odorants was given to the insect by inserting pipettes containing a piece of filter paper with the correspondent stimulus in a lateral hole of the glass tube and puffing a flow of 2.5 mL of air during 0.5 s through the pipette. For CpomOR1 and CpomOR6a the panel of odorants was prepared by applying 10 μL of a solution of 1.0 μg/μL of the compounds in Supplementary Dataset S2 and Supplementary Dataset S3, for a total amount of 10 μg per stimulus. In the case of CpomOR3, a similar dilution process was used for the dose response experiments of ethyl-(E,Z)-2,4-decadienoate and methyl-(E,Z)-2,4-decadienoate, as well for dose response of experiments of codlemone acetate in CpomOR6a. Compounds were diluted from concentrations ranging from 0.01 ng/μL to 10 μg/μL in decadic steps, allowing reaching concentrations from 100 pg to 100 μg per stimulus when 10 μL of the dilution was applied in the piece of filter paper. […]

CpomOR1 = test: Single sensillum recordings, CpomOR1 expressed in Drosophila at1 OSNs; assay type: cell-based, Cydia pomonella; conditions: 10 μg per stimulus
Source text: as §1, §2

CpomOrco + OR complexes = test: Calcium imaging of HEK293T cells expressing heteromeric CpomOrco + OR complexes; assay type: cell-based, Cydia pomonella
Method: HEK293T cells were grown in HEK cell media [Dulbecco’s modified Eagle’s medium containing 10% fetal bovine serum (MP Biomedicals, Solon, OH, USA), 2.0 mM L-glutamine, and 100 μg/mL Penicillin/Streptomycin (Invitrogen)] at 37 °C and 5% CO2. To test transient expression of CpomORs for calcium imaging or patch-clamp recording experiments, 35-mm petri dishes containing semi-confluent HEK293T cells were transiently transfected. To transfect cells with CpomOrco, we used 1.0 μg of pcDNA5/TO/CpomOrco DNA. In order to promote expression of the OR[51], we used double aliquots for pcDNA5/TO/CpomOR DNAs (2.0 μg), combined with 1.0 μg of pcDNA5/TO/CpomOrco for co-transfections (CpomOrco + ORs). To report expression for calcium imaging experiments, 1.0 μg of a separate plasmid DNA [pEBFP2-Nuc, a gift from Robert Campbell (Addgene plasmid # 14893[52])] carrying the coding sequence for a blue fluorescent protein (BFP) was used. In patch-clamp recordings, 1.0 μg of a separate plasmid DNA (pXOOM, Clontech) carrying the coding sequence for a green fluorescent protein (GFP) was used to report expression. In order to report candidate OR-expressing cells, expression of both fluorescent reporter genes was under the regulation of the same promoter for CpomOR genes (CMV). Transfection DNAs were dissolved in 100 μL sterile DMEM, mixed with 3.0 μL Calfectin (SignaGen, Rockville, MD, USA) following the recommended protocol. To estimate transfection efficiency, a parallel transfection was conducted using the positive control vector pcDNA5/TO/LACZ (Invitrogen) and staining with 0.1% XGal[53]. […]
(§3) Fluorescence imaging was performed using Imaging Workbench 6 software (INDEC BioSystems, Santa Clara, CA, USA). Each cell was assigned a region of interest (ROI) and changes in fluorescence intensity within each ROI were measured and expressed as the fractional change in fluorescence intensity (dF) or in some cases as dF/F0 where F0 is the basal fluorescence level before agonist application. […] Continuous traces of multiple responses were compensated for slow drift of the baseline fluorescence when necessary. […]

CpomOrco = CpomOrco (Cydia pomonella, UniProt H9A5M2); test: Calcium imaging of HEK293T cells expressing homomeric CpomOrco; assay type: cell-based; conditions: peak amplitudes normalized to response at 1000 μM agonist, read-out: [A]1/2 half-effective concentration of agonist, calcium response
Method: HEK293T cells were grown in HEK cell media [Dulbecco’s modified Eagle’s medium containing 10% fetal bovine serum (MP Biomedicals, Solon, OH, USA), 2.0 mM L-glutamine, and 100 μg/mL Penicillin/Streptomycin (Invitrogen)] at 37 °C and 5% CO2. To test transient expression of CpomORs for calcium imaging or patch-clamp recording experiments, 35-mm petri dishes containing semi-confluent HEK293T cells were transiently transfected. To transfect cells with CpomOrco, we used 1.0 μg of pcDNA5/TO/CpomOrco DNA. In order to promote expression of the OR[51], we used double aliquots for pcDNA5/TO/CpomOR DNAs (2.0 μg), combined with 1.0 μg of pcDNA5/TO/CpomOrco for co-transfections (CpomOrco + ORs). […]
as §3

SMILES: CCCCC/C=C\C=C\C(=O)OCC [(E,Z)-ED, ethyl-(E,Z)-2,4-decadienoate]
- amplitude of the calcium response (mean of the maximum response ± SEM) (CpomOrco + OR3): 15.07 ± 9.48 dF
- EC50 (CpomOrco + OR3): 454 ± 120 µM
- minimum dose to elicit a response significantly different from the solvent (CpomOR3): 100 ng
- Spike/s (CpomOR6a; replicate 1): 2 Spike/s
- Spike/s (CpomOR6a; replicate 2): -2 Spike/s
- Spike/s (CpomOR6a; replicate 3): 8 Spike/s
- Spike/s (CpomOR6a; replicate 4): 2 Spike/s
- Spike/s (CpomOR6a; replicate 5): -14 Spike/s
- Spike/s (CpomOR6a; replicate 6): 8 Spike/s
- Spike/s (CpomOR6a; replicate 7): 4 Spike/s
- Spike/s (CpomOR6a; replicate 8): -2 Spike/s
- Spike/s (CpomOR6a; replicate 9): 14 Spike/s
- Spikes/s (CpomOR1; replicate 1): -2 Spikes/s
- Spikes/s (CpomOR1; replicate 2): 2 Spikes/s
- Spikes/s (CpomOR1; replicate 3): 2 Spikes/s
- Spikes/s (CpomOR1; replicate 4): 2 Spikes/s
- Spikes/s (CpomOR1; replicate 5): 10 Spikes/s

SMILES: CCCCC/C=C\C=C\C(=O)OC [(E,Z)-MD, methyl (E,Z)-2,4-decadienoate]
- amplitude of the calcium response (mean of the maximum response ± SEM) (CpomOrco + OR3): 10.40 ± 5.91 dF
- EC50 (CpomOrco + OR3): 1080 ± 113 µM
- minimum dose to elicit a response significantly different from the solvent (CpomOR3): 10000 ng

SMILES: CC(C)CN(C)c1nc(N)c(C(=O)N=C(N)N)nc1Cl [MIA, 5-(N-methyl-N-isobutyl) amiloride]
- block of the VUAA3 activated calcium signal (CpomOrco + OR complexes; MIA 100 μM applied extracellularly, all heteromeric complexes, only partially reversible): almost completely blocked

SMILES: CCc1ccc(NC(=O)CSc2nnc(-c3cccnc3)n2CC)cc1 [VUAA1, acetamide,N-(4-ethylphenyl)-2-[[4-ethyl-5-(3-pyridinyl)-4H-1,2,4-triazol-3-yl]thio]-]
- EC50 (CpomOrco + OR complexes; heteromeric complexes, peak amplitudes normalized to response at 1000 μM agonist, read-out: [A]1/2 half-effective concentration of agonist, calcium response): ~150 µM
- EC50 (CpomOrco): ~520 µM
